The source of these data is PMC8066339, “Optimization of 2-Acylaminocycloalkylthiophene Derivatives for Activity against Staphylococcus aureus RnpA” (Antibiotics, 2021).

Holding throughout (type): cell-based, Staphylococcus aureus
The subject of experiment [1] is RnpA-mediated ptRNA processing. The experiment can be described thus: Cellular ptRNA^Tyr accumulation (qRT-PCR). As to conditions: 0.5X MIC for 1 h, Figure 3 right. How it is done:
To evaluate the effects of each analog on cellular RnpA-mediated ptRNA processing, S. aureus cells were treated with a sub-inhibitory concentration of each analog (0.5X MIC) and qRT-PCR was used to measure ptRNA^Tyr accumulation, as previously described. […] Compounds RNP0007, 11,13, 14, 15, and 16 had little effect on ptRNA^Tyr levels in the cellular context.
Cellular S. aureus tRNA^Tyr pools were measured as previously described. […] The culture was removed, combined with an equal volume of acetone:ethanol (1:1 v/v) and stored at −80 °C.
(§1) Cell suspensions in acetone:ethanol were thawed on ice and centrifuged at 1560× g for 10 min at 4 °C. Acetone:ethanol was decanted, and pellets were left to air-dry for 5 min. Cell pellets were resuspended in 500 µL ice-cold TE buffer (10 mM Tris-HCl, pH 8.0, 1mM EDTA) and transferred to FastPrep Lysing Matrix B tubes (MP Biomedicals, Santa Ana, CA). Mixtures were homogenized at 5 m∙s^−1 for 20 s, rested on ice for 5 min, then homogenized again at 4.5 m∙s^−1 for 20 s in a FastPrep-24 instrument. Cell lysates were centrifuged at 16,200× g for 15 min at 4 °C to remove cell debris. Total bacterial RNA and tRNA^Tyr populations were isolated from the supernatant using Qiagen RNeasy Mini kits and miRNeasy kits, respectively, following the manufacturer’s recommendations (Germantown, MD). For qRT-PCR, 2 µg of RNA substrate was treated with 2 units of DNase I (New England Biolabs, Ipswich, MA, USA) for 1 h at 37 °C and re-purified using Qiagen RNeasy Mini kits, following the manufacturer’s instructions. RNA was measured for concentration and quality using a NanoDrop spectrophotometer. Quantabio (Beverly, MA, USA) qScript cDNA Supermix was used to convert 200 ng of RNA into cDNA, following manufacturer’s instructions, which was subsequently amplified using Quantabio SYBR Green Fast Mix following manufacturer’s instructions. Fluorescence was read on the BioRad (Hercules, CA, USA) CFX 96 Connect Real Time Machine. Transcript levels were compared to the internal control 16S rRNA (ΔΔCt) and plotted as fold change compared to the control. The following primer pairs were used in this study for qRT-PCR: spa forward—[…]; spa reverse—[…]; –15 ptRNA^Tyr forward—[…]; tRNA^Tyr reverse—TGGTG GAGGGGGGCAGATTC; 16S rRNA forward—[…]; 16S rRNA reverse—[…].
For orientation: In qPCR the cycle at which signal appears reflects the starting amount.

The test system of the next experiment is S. aureus UAMS-1. The experiment in a line: Fractional inhibitory concentration (FIC) testing with mupirocin. As to conditions: for MIC: Staphylococcus aureus, UAMS1, compound alone, read-out: Cpd MIC, Dosed-Individually; for Antimicrobial interaction with mupirocin (class by FIC index) / FIC Index: compound + mupirocin; for Cpd MIC, Dosed-Combination: compound MIC in combination with mupirocin. How it is done: Fractional inhibitory concentration (FIC) testing was performed, as previously described. Briefly, each well of a 96-well microtiter plate was inoculated with 10^4 CFU of S. aureus UAMS-1 [42]. Each row of the plate was supplemented with two-fold increasing concentrations of mupirocin (0 µg mL^−1 to 2 µg mL^−1) whereas each column contained two-fold increasing concentrations of putative RnpA inhibitor compound (0.03, 0.0625, 0.125, 0.25, 0.5, 1, or 2× MIC). […] The FIC index was defined by the following formula: FIC = (MIC of Drug A in Combination/MIC of Drug A Alone) + (MIC of Drug B in Combination/MIC of Drug B Alone). A synergistic interaction was defined as a FIC value of ≤0.5, an additive interaction as 0.5–1, no interaction as 1–4 and antagonistic interaction as FIC ≥ 4, as described.

Experiment [2] concerns RnpA-mediated mRNA turnover of spa mRNA. The experiment in a line: Cellular mRNA turnover assay (spa mRNA, qRT-PCR after rifampin arrest). As to conditions: 0.5X MIC for 30 min, 0 and 5 min post-transcriptional arrest, Figure 3 left. As to the method:
As a more direct measure of whether the antimicrobial effects were RnpA-dependent, studies were performed to measure their inhibition of cellular RnpA-mediated mRNA turnover of spa mRNA. The spa mRNA is a natural substrate of RnpA mRNA degradation, as previously described, and can be utilized for an intracellular readout of inhibition for RnpA-mediated mRNA turnover. To do so, S. aureus cells were treated with a sub-inhibitory concentration of compound (0.5X MIC) then challenged with the antibiotic rifampicin to arrest de novo RNA synthesis. Quantitative RT-PCR was used to measure the cellular titers of spa mRNA at 0 and 5 min post-transcriptional arrest.
S.aureus RNA half-life measurements were performed as described. […] To inhibit de novo RNA synthesis, rifampin (Alfa Aesar, Haverhill, MA, USA) was added to the culture at a final concentration of 200 µg mL^−1. Half of the culture was immediately removed and combined with an equal volume of ice-cold acetone:ethanol (1:1 v/v). The remainder of the culture was returned to the 37 °C incubator for an additional 5 min, then combined with an equal volume of ice-cold acetone:ethanol (1:1 v/v) and stored at −80 °C.
as §1

“Also recorded” adds a separate entry of the source.

As for `O=C(Nc1cccc(C(F)(F)F)c1)c1c(NC(=O)C(F)(F)F)sc2c1CCCC2` [RNP0016], the “Cellular ptRNA^Tyr accumulation (in words)” value in experiment [1] is recorded as “little effect”. Besides, in the experiment with S. aureus UAMS-1, the MIC was determined as 3.12 µM; the “Antimicrobial interaction with mupirocin (class by FIC index)” value is recorded as “additive (a value of 0.5 < FIC ≤ 1 indicates additive effect)”; the “FIC Index” value stood at 1; the “Cpd MIC, Dosed-Combination” value turned out to be 1.56 µM. Moreover, the “Inhibition of cellular spa mRNA turnover (in words)” value (“Inhibition” below) in experiment [2] is “strongest stabilizers of mRNA”.

Regarding `O=C(Nc1ccc(C(F)(F)F)cc1)c1c(NC(=O)C(F)(F)F)sc2c1CCCC2` [RNP0015], the “Cellular ptRNA^Tyr accumulation (in words)” value in experiment [1] is reported as “little effect”. Further, in the experiment on S. aureus UAMS-1, the minimal inhibitory concentration (MIC) was 0.78 µM; the “FIC Index” value worked out at 1.5; the “Cpd MIC, Dosed-Combination” value is on record as 0.78 µM.

On to `O=C(Nc1ccc(F)cc1)c1c(NC(=O)C(F)(F)F)sc2c1CCCCC2` [RNP0009], for which the “Cellular ptRNA^Tyr accumulation (in words)” value in experiment [1] is recorded as “largest increases”. Further, in the experiment on S. aureus UAMS-1, the MIC amounted to 0.78 µM; the “FIC Index” value is listed as 0.75; the “Cpd MIC, Dosed-Combination” value worked out at 0.196 µM. For the same compound, the “Inhibition” value in experiment [2] was “weakest inhibitors”.

For the compound `O=C(Nc1ccc(F)cc1)c1c(NC(=O)C(F)(F)F)sc2c1CCCC2` [RNP0014], the “Cellular ptRNA^Tyr accumulation (in words)” value in experiment [1] is “little effect”. For the same compound, in the experiment on S. aureus UAMS-1, the minimum inhibitory concentration (MIC) came out at 6.25 µM; the “Antimicrobial interaction with mupirocin (class by FIC index)” value is given as “synergistic (FIC ≤ 0.5 indicates synergistic activity)”; the “FIC Index” value is 0.5; the “Cpd MIC, Dosed-Combination” value is 1.56 µM. For the same compound, the “Inhibition” value in experiment [2] is listed as “strongest stabilizers of mRNA”.

`O=C(Nc1cccc(C(F)(F)F)c1)c1c(NC(=O)C(F)(F)F)sc2c1CCCCC2` [RNP0011]: the “Cellular ptRNA^Tyr accumulation (in words)” value in experiment [1] was “little effect”. In the experiment with S. aureus UAMS-1, the MIC amounted to 0.391 µM; the “FIC Index” value worked out at 0.75; the “Cpd MIC, Dosed-Combination” value amounted to 0.098 µM. For the same compound, the “Inhibition” value in experiment [2] is listed as “moderate inhibitors”.

`O=C(Nc1ccc(C(F)(F)F)cc1)c1c(NC(=O)C(F)(F)F)sc2c1CCCCC2` [RNP0012]: the “Cellular ptRNA^Tyr accumulation (in words)” value in experiment [1] is reported as “largest increases; also recorded: top-performing cellular ptRNA processing inhibitor”. Besides, in the experiment on S. aureus UAMS-1, the MIC came to 0.19 µM; the “Antimicrobial interaction with mupirocin (class by FIC index)” value is “additive (a value of 0.5 < FIC ≤ 1 indicates additive effect)”; the “FIC Index” value came out at 0.75; the “Cpd MIC, Dosed-Combination” value came out at 0.048 µM. Also, the “Inhibition” value in experiment [2] is on record as “moderate inhibitors; also recorded: significantly reduced RnpA-associated mRNA degradation”.

Regarding `O=C(Nc1cccc(F)c1)c1c(NC(=O)C(F)(F)F)sc2c1CCCC2` [RNP0013], the “Cellular ptRNA^Tyr accumulation (in words)” value in experiment [1] is on record as “little effect”. In the experiment on S. aureus UAMS-1, the minimum inhibitory concentration (MIC) came to 6.25 µM; the “FIC Index” value was determined as 0.75; the “Cpd MIC, Dosed-Combination” value is reported as 1.56 µM.

For `O=C(Nc1cccc(Cl)c1)c1c(NC(=O)C(F)(F)F)sc2c1CCCCC2` [RNP0007], the “Cellular ptRNA^Tyr accumulation (in words)” value in experiment [1] is “little effect”. Moreover, in the experiment on S. aureus UAMS-1, the minimum inhibitory concentration (MIC) is 0.391 µM; the “FIC Index” value came out at 0.75; the “Cpd MIC, Dosed-Combination” value is reported as 0.098 µM.

As to `O=C(Nc1cccc(F)c1)c1c(NC(=O)C(F)(F)F)sc2c1CCCCC2` [RNP0008], in experiment [1], the “Cellular ptRNA^Tyr accumulation (in words)” value is listed as “largest increases”. Besides, in the experiment with S. aureus UAMS-1, the MIC turned out to be 0.391 µM; the “FIC Index” value turned out to be 1; the “Cpd MIC, Dosed-Combination” value is given as 0.196 µM. In addition, in experiment [2], the “Inhibition” value is given as “weakest inhibitors”.

With `Cc1cccc(NC(=O)c2c(NC(=O)C(F)(F)F)sc3c2CCCCC3)c1` [RNP0010], the “Cellular ptRNA^Tyr accumulation (in words)” value in experiment [1] is listed as “largest increases”. Also, in the experiment on S. aureus UAMS-1, the MIC was 3.12 µM; the “FIC Index” value stood at 0.75; the “Cpd MIC, Dosed-Combination” value was 0.78 µM. Besides, in experiment [2], the “Inhibition” value is recorded as “strong inhibitor”.

A word on the MIC: it is the smallest concentration in the dilution series that meets the test's criterion for growth inhibition.
